In patent publication US20260199224A1, “Compositions comprising Sanguisorba officinalis root extract and uses thereof” (Clariant International Ltd, priority 2022, published 2026):

Legend:
[1] = test system: Clostridium histolyticum collagenase (type IA); assay: Anti-collagenase activity, FALGPA degradation followed by UHPLC; assay type: biochemical; settings: 25 μM; for Residual activity, ActR (%) of collagenase: 30 minutes
Procedure: FDTA-I and FDTA-II were purified from stimulated roots of Sanguisorba officinalis, where the plant has been stimulated by using a nutrient medium without nitrogen (N/P/K 0/15/40) for 1 to 3 weeks. 10 g of dried and grinded (1 mm) roots were macerated in 100 ml of ethyl acetate for 24 h at 50° C. The purified fraction of FDTA-I and FDTA-II was obtained by preparative HPLC and characterized by mass spectrometry. Ferulic acid and TA have been purchased commercially. In addition, it was also included in the test ziyuglycoside I, an active compound isolated from Sanguisorba officinalis roots known to hold various activities including increased expression of type I collagen. For the comparison, SORE was obtained as presented in example 1. The anti-collagenase inhibiting activity was measured by following the kinetics of collagenase-driven degradation of collagenase substrate: FALGPA (N-[3-(2-Furyl) acryloyl]-Leu-Gly-Pro-Ala) into FAL (N-[3-(2-Furyl) acryloyl]-Leu) and Gly-Pro-Ala.
Briefly, a volume of 100 μL of 1.5 mM solution of FALGPA in 50 mM tricine buffer with 10 mM calcium chloride and 400 mM sodium chloride, pH 7.5 (Bachem, 4006713.0025) was mixed with a volume of 10 μL of test sample or pure solvent of the test sample (positive control), followed by a volume of 10 μL of 0.05 mg/ml of Clostridium histolyticum collagenase (type IA, Sigma-Aldrich, C9891). To determine the rate of enzymatic conversion, the content of FAL was quantified at the beginning of the reaction and 30 minutes after its initialization by stopping the enzymatic conversion of FALGPA by EDTA. To quench the enzymatic conversion, a volume of 50 μL of the test sample was mixed with a volume of 50 μL of EDTA (0.2 M in water). The content of FAL in the samples was then quantified by UHPLC method optimized to separate FALGPA and FAL. The analysis was conducted using Kinetex Biphenyl reverse phase column (150 mm×2.1 mm, 2.6 μm, Phenomenex, Torrance, USA), maintained at 40° C. The mobile phase was composed of water containing 0.1% vol. of formic acid (A) and pure acetonitrile (B), delivered at 0.5 ml/min with the gradient of B phase as follows: 5-41% (0-9 min); 41-90% (9-9.05 min); hold at 90% (9.05-11.50 min); 90-5% (11.50-11.55 min), hold at 5% (11.55-14.50 min). Sample injection volume was 5 μL and FALGPA/FAL detection at 338 nm. Residual activity and the inhibition degree of collagenase in the presence of test sample X was then calculated using the following equation: […]
ActR %—residual activity; Inh %—inhibition degree; AUC—peak area of FAL; EchX tested sample; BL—blank.

[2] = test system: bovine hyaluronidase, Type IS; assay: Anti-hyaluronidase activity, intact hyaluronic acid by BSA turbidity at 600 nm; assay type: biochemical; settings: 15 μM
Procedure: FDTA-I and FDTA-II were purified from stimulated roots of Sanguisorba officinalis as described in example 10. In addition, ziyuglycoside I was also included in the test. For the comparison, SORE was prepared as presented in example 1.
Hyaluronidase catalyzes the degradation reaction of hyaluronic acid (HA). The test is based on the quantification of intact HA content in the presence/absence of an extract of interest and/or compounds of interest. The degradation rate of HA content is proportional to enzymatic activity of hyaluronidase and inversely proportional to the inhibition power of the extract.
The reaction mixture was prepared as follows: 37.5 μL of 20 mM PHB buffer pH 7, 187.5 μL of hyaluronidase solution (bovine hyaluronidase, Type IS, Sigma) 0.02 mg/mL, and 25 μL of sample (SORE or pure FDTA-I and FDTA-II to be tested). In the case of table 13, the pure FDTA-I and FDTA-II as well as SORE were in pure propane-1,3-diol. In the case of table 14, the pure FDTA-I and FDTA-II were in 100% ethanol. The mixture was incubated for 10 minutes at room temperature and then 250 μL of HA substrate (0.3 mg/mL in phosphate buffer) are added to initiate the reaction. Incubation is done in a Thermomixer at 37° C., under agitation (450 rpm). The reaction was monitored for 60 minutes with a sampling of the reaction mix (50 μL) every 15 minutes. These samples were inserted into the wells of a microplate containing 200 μL of BSA solution 0.1% pH 3.75 and incubated in BSA for 10 minutes. The HA formed aggregates with the BSA solution which precipitates. Thus, the amount of precipitating BSA was proportional to the optical density at 600 nm which allows to monitor the enzymatic reaction. The microplate was finally inserted into the spectrophotometer and the optical density was measured at this wavelength.

[3] = mouse, in vivo; cited from earlier work
[4] = sample in 100% ethanol (table 14)
[5] = sample in pure propane-1,3-diol (table 13)

Row | Compound | inhibition of collagenase IA (Inh %) [1] | Residual activity, ActR (%) of collagenase [1] [%] | effect on hyaluronidase, in words ([2]; comment on table 13) | effect on hyaluronidase, in words ([2]; comment on table 14) | Residual activity of hyaluronidase (%) [2, 4] [%] | Residual activity of hyaluronidase (%) [2, 5] [%] | toxicity in mice [3]
1 | COc1cc(/C=C/C(=O)OC2C(O)CC3(C)C(CCC4(C)C3CC=C3C5C(C(=O)O)(CCC(C)C5(C)O)CCC34C)C2(C)C)ccc1O (centres unmarked) [FDTA-I, feruloylated derivative of tormentic acid] | 76% | 24 | acted as a hyaluronidase inhibitor | acted as hyaluronidase inhibitors | 69 | 9.5 | –
2 | COc1cc(/C=C/C(=O)OC2C(O)CC3(C)C(CCC4(C)C3CC=C3C5C(C)C(C)CCC5(C(=O)O)CCC34C)C2(C)C)ccc1O (centres unmarked) [FDTA-II, feruloylated derivative of deoxy-tormentic acid] | 36% | 64 | – | acted as hyaluronidase inhibitors | 89 | – | –
3 | COc1cc(/C=C/C(=O)O)ccc1O [Ferulic acid, ferulic acid] | do not have any effect | 96 | did not have any effect | – | – | 103 | –
4 | C[C@@H]1CC[C@]2(C(=O)O)CC[C@]3(C)C(=CC[C@@H]4[C@@]5(C)C[C@@H](O)[C@H](O)C(C)(C)[C@@H]5CC[C@]43C)[C@@H]2[C@]1(C)O [TA, tormentic acid] | do not have any effect | 98 | did not have any effect | – | – | 98 | –
5 | C[C@@H]1CC[C@]2(C(=O)O[C@@H]3O[C@H](CO)[C@@H](O)[C@H](O)[C@H]3O)CC[C@]3(C)C(=CC[C@@H]4[C@@]5(C)CC[C@H](O[C@@H]6OC[C@H](O)[C@H](O)[C@H]6O)C(C)(C)[C@@H]5CC[C@]43C)[C@@H]2[C@]1(C)O [Ziyuglycoside I] | did not have any enzymatic inhibitory effect | 106 | – | did not have any effect | 107 | – | –
6 | Oryzanol | – | – | – | – | – | – | did not demonstrate any toxicity
